Reference: the pKa sets of Baltruschat and Czodrowski (2020)

Conditions: acidic group

Point of comparison: `C[n+]1cccc2ccc(O)cc21`, pKa 5.56. Against it:
- Cc1cccc([Se](=O)O)c1 — lower, 4.8
- N#CC(C#N)=NNc1ccc(/N=N/c2ccccc2)cc1 — higher, 7.33
- O=S(O)c1ccccc1 — lower, 1.72
- O=C(O)C#CSc1ccccc1 — lower, 2.11
- CN1CCC(=O)NC1=O — higher, 11.9
- O=S(=O)(Nc1nccs1)c1ccc(O)cc1 — higher, 6
- C/C(=C\C=C\C(C)C(=O)O)[C@H]1C[NH2+][C@H](C(=O)O)[C@H]1CC(=O)O (stereo partly specified) — lower, 2.1
- CC(C)(C#N)CC(=O)O — lower, 4.04
- CC(Cl)C(=O)O (stereo unspecified) — lower, 2.88
- O=C/C(O)=C/O — lower, 5.03
- N#CC(CC(=O)O)Cc1ccccc1 (stereo unspecified) — lower, 3.91
- COc1ccc(NC=S)cc1 — higher, 11.7
- Cc1cccc(/C=N/O)n1 — higher, 10
- Cc1cc(C)c(/N=N/c2c(C)cc(O)cc2C)c(C)c1 — higher, 9.1
- CC(O)C(C(=O)O)c1ccc(-c2ccccc2)cc1 (stereo unspecified) — lower, 4.3
- O=c1ccccc(O)c1O — higher, 6.72
- Cc1cc(C)c(O)c(C(C)C)c1 — higher, 11.2
- O=Nc1c(O)ccc2ncsc12 — within 0.2 log units, 5.43
- N#CS — lower, 0.85
- COc1cc(/C=N/c2ncc3nc[nH]c3n2)ccc1O — higher, 8.91
- CC(C)N(CCC(C(N)=O)(c1ccccc1)c1ccccn1)C(C)C (stereo unspecified) — higher, 10.2
- O/N=C/c1ccccc1 — higher, 10.8
- On1nnc2c(Cl)cccc21 — lower, 3.9
- Oc1cc(Br)cc(Br)c1 — higher, 8.01
- Sc1nc2cc3ccccc3cc2[nH]1 — higher, 9.84
- O=C(O)Cc1cccs1 — lower, 3.85
- CC(O)[C@@H]1C[C@H](CC(=O)O)C1(C)C (stereo partly specified) — lower, 4.83
- O=C1CCc2cc(Cl)ccc2C1 — higher, 12.5
- O=C(O)/C=C\c1cccc(Cl)c1 — lower, 3.71
- NCc1ccc(S(N)(=O)=O)cc1 — higher, 10.2
- CN(C)C(=O)c1ncnc2nc[nH]c12 — higher, 7.9
- CNc1nc(O)[n+]([C@@H]2C[C@@H](O)[C@H](CO)O2)cc1C — lower, 4.04
- Cn1cnc(C(=O)O)c1C(=O)O — lower, -0.56
- O=C(O)c1cccc(I)c1 — lower, 3.83
- CC#CCC(=O)O — lower, 3.6
- S=C(NCc1ccccc1)c1ccccc1 — higher, 12.2
- C[NH+](C)CCCCCCCCNC(=O)/C=N/O — higher, 8.97
- O=C(O)[C@@H]1O[C@H](Oc2ccc3[nH+]cccc3c2)[C@@H](O)[C@H](O)[C@H]1O — lower, 3
- O=C([O-])[C@H](NCC[NH2+][C@@H](C(=O)[O-])c1ccccc1[O-])c1ccccc1O — higher, 10.9
- CC(C)(OO)c1ccccc1 — higher, 12.6
- CC1CCC(=O)C1=O (stereo unspecified) — higher, 9.6
- N/N=C(\N)c1ncnc2nc[nH]c12 — higher, 10
- Cc1cc(C)nc([N-]S(=O)(=O)c2ccc(O)cc2)n1 — higher, 9.16
- CCCc1c(C)[nH]n(C2CC[NH+](C)CC2)c1=O — higher, 7.18
- O=C(O)c1ccc([N+](=O)[O-])s1 — lower, 2.68
- CC(=O)c1c(C(=O)O)cccc1[N+](=O)[O-] — lower, 3.26
- Sc1nc2[nH]cnc2c[nH+]1 — lower, 0.5
- O=N/C(=N/O)c1ccccc1 — lower, 4.9
- Oc1cccc2ccncc12 — higher, 8.4
- Cc1cc(O)c(C(C)C)cc1Cl — higher, 9.98
- CCO[C@H]1C[C@H]1C(=O)O — lower, 4.83
- Cc1ccc([N+](=O)[O-])cc1C(=O)O — lower, 3.17
- CC(=O)Nc1nnn[nH]1 — lower, 4.53
- C[NH+](C)CCc1cccc(O)c1 — higher, 9.24
- Oc1cc(O)cc(O)c1 — higher, 8.83
- O=C(O)[C@@H]1O[C@H](Oc2ccc(-c3ccccc3)cc2)[C@@H](O)[C@H](O)[C@H]1O — lower, 3.1
- CC(O)[C@@H]1C[NH2+][C@H](C(=O)[O-])[C@H]1CC(=O)O (stereo partly specified) — lower, 4.35
- Cc1ccc(=O)c(O)c(Br)c1 — higher, 6.41
- N#CC[N+](=O)[O-] — lower, 4.86
- CC(=O)/C(CN1CCOCC1)=N\O — higher, 9.15
- CC(=O)C(C)C(=O)C(C)C (stereo unspecified) — higher, 11.8
- O=C(O)c1ccc(F)cc1 — lower, 4.16
- O=C(C[n+]1cccc2c3ccccc3ccc21)c1ccc([N+](=O)[O-])cc1 — higher, 9.45
- CSc1ncnc2[nH]ncc12 — higher, 9.65
- NC(=O)c1cccnc1 — higher, 13.5
- CC(=O)[n+]1ccccc1 — lower, 5.32
- CC(=S)Nc1ccccc1 — higher, 11.6
- CC1=C(C)/C(=C(\C)C(=O)O)CC1=O — lower, 3.1
- Oc1[nH+]ccc2cccnc12 — lower, 2.64
- CCc1nsc(O)n1 — higher, 6.89
- C[NH+](C)Cc1ccc(O)cc1 — higher, 8.83
- CCNC(O)=S — lower, 0.92
- CCC(O)C(C(=O)O)c1ccc(-c2ccccc2)cc1 (stereo unspecified) — lower, 4.16
- CC(=O)c1cc(C(C)=O)[nH]n1 — higher, 8.98
- [O-]c1nc(C(F)(F)F)nc2nc[nH]c12 — higher, 11.2
- OCCS — higher, 9.47
- O=c1cccccc1O — higher, 6.87
- NC(=O)Nc1ccc([N+](=O)[O-])cc1 — higher, 14
- N#CCCN(CCC#N)c1nnn[nH]1 — lower, 4.85
- Sc1ccc(Cl)cc1 — higher, 5.82
- Cc1csc(S(N)(=O)=O)n1 — higher, 8.35
- O=C(O)C[C@]1(O)C[C@H]2CC[C@@H]1C2 — lower, 4.57
- Nn1cnnc1S — higher, 7.47
- C=C(/C=C(/C)O)C(C)(C)C — higher, 11
- Oc1ccnc([Se-])[nH+]1 — higher, 7.18
- O=Cc1ccc(O)cc1Cl — higher, 6.6
- CNc1nnn[nH]1 — higher, 6.06
- NC1=[NH+][C@@H](CC(=O)O)C(=O)N1CCCC([NH3+])C(=O)O (stereo partly specified) — lower, 1.86
- O=C1COC(=O)N1 — higher, 5.84
- [O-]c1ccc(O)cc1 — higher, 11.6
- CC(S)C(=O)[O-] (stereo unspecified) — higher, 10.1
- c1ccc(-c2nn[nH]n2)cc1 — lower, 4.53

Same assay, conditions: basic group

Point of comparison: `NCc1ccc(S(N)(=O)=O)cc1`, pKa 8.35. Against it:
- N=C1C=C(N)C(=O)c2ccccc21 — higher, 8.87
- CC(=O)OCC1CC2CCN1CC2 (stereo unspecified) — higher, 9.88
- N#CC(C#N)=NNc1ccc(/N=N/c2ccccc2)cc1 — lower, -0.87
- NCCc1ccc(Cl)cc1 — higher, 9.66
- CN — higher, 10.8
- C[n+]1c(NN)ccc2ccccc21 — lower, 2.66
- C=Cc1c(C)c2cc3nc(c(CC(=O)OC)c4[nH]c(cc5nc(cc1[nH]2)C(C)=C5CC)c(C)c4C(=O)NCC)[C@@H](CCC(=O)OC)[C@@H]3C — lower, 2.7
- CNCl — lower, 1.71
- CCCCNc1ccnc2cccc([N+](=O)[O-])c12 — lower, 7.18
- NCCCCCc1ccncc1 — higher, 10.3
- CC(O)CN(C)CC(C)O (stereo unspecified) — higher, 8.7
- CC(C)C1CC(CC(=O)[O-])NC1C(=O)[O-] (stereo unspecified) — higher, 10.4
- CCN(CC)CCCC(C)=O — higher, 10.1
- CCOc1ccc2nccc([C@@H](O)[C@@H]3C[C@H]4CCN3C[C@@H]4CC)c2c1 — within 0.2 log units, 8.5
- CCN(CC)c1nnc(-c2ccccc2)s1 — lower, 3.09
- O=C([O-])C1CCNC1 (stereo unspecified) — higher, 10.7
- CCN(CC)CCOC(=O)c1ccccc1 — higher, 8.9
- COc1cc(/C=N/c2ncc3nc[nH]c3n2)ccc1O — lower, 2.79
- CC1NOCc2ccccc21 (stereo unspecified) — lower, 3.7
- NCCNCCCO — higher, 9.67
- CCN1CCC[C@@H]1CNC(=O)c1c([O-])cccc1OC — higher, 9.54
- OCCCCCc1ccccn1 — lower, 5.93
- CC(C)CSCCN — higher, 8.73
- CCc1nc2cc3c(cc2[nH]1)CCCC3 — lower, 6.64
- c1coc(CNc2ncnc3[nH]ncc23)c1 — lower, 4.01
- Cc1nc2ccccc2[nH]1 — lower, 6.3
- C(=N\c1ccccc1)/c1ccccc1 — lower, 4.55
- C=CCN(C)CCCNC(=O)/C=N/[O-] — higher, 9.5
- NCCCCC(=O)[O-] — higher, 10.8
- O=C(Nc1ccncc1)c1ccccc1 — lower, 5.32
- Cn1ncc2c(NC(C)(C)CC(C)(C)C)ncnc21 — lower, 3.96
- NC(CC(=O)[O-])c1ccccn1 (stereo unspecified) — higher, 9.22
- CN1C[C@@H](C(=O)[O-])C[C@@]2(O)c3cccc4[nH]cc(c34)C[C@H]12 — higher, 9
- CCN(CC)S(=O)(=O)c1ccc(N)cc1 — lower, 1.75
- Cc1nc(CO)[nH]c1C — lower, 7.88
- C[C@@H]1CCC[C@H](C)N1C — higher, 10.2
- CC(C)(N)C(N)=S — lower, 7.61
- Cc1cc([S-])[nH+]c([S-])n1 — lower, 6.87
- CSCCN — higher, 9.41
- Cn1ccc(=O)cc1 — lower, 3.33
- c1ccc2c(c1)NCC[NH2+]2 — lower, 2.11
- Fc1cccc2[nH]cnc12 — lower, 4.4
- OC[C@@H]1O[C@H](n2cnc3c2ncn2ccnc32)[C@@H](O)[C@H]1O — lower, 4.1
- N=C1Cc2ccccc2N1 — lower, 8.15
- CC(=O)c1ccccc1N — lower, 2.31
- Oc1cccc2ccncc12 — lower, 5.66
- CN1[C@@H]2CC[C@H]1[C@H](C(=O)[O-])[C@@H](O)C2 — higher, 9.7
- CN(C)C[C@@H]1[C@H](CO)[C@H]2C=C[C@@H]1C2 — higher, 9.54
- CCNCC[NH2+]CC — lower, 7.7
- Cn1c(=O)c2[nH]c[nH+]c2n(C)c1=O — lower, 0.7
- CCNCCN — higher, 10.5
- Nc1cc(-c2ccccc2)nc2ccccc12 — within 0.2 log units, 8.2
- C[NH+](C)CCNCCN — higher, 9.12
- CCCN(CCC)c1ccc([N+](=O)[O-])cc1 — lower, 1.06
- CCC(N)CCCl (stereo unspecified) — within 0.2 log units, 8.53
- CN(C)c1ccc(N)cc1 — lower, 6.37
- CCCCNc1ncnc2c1cnn2C — lower, 4.22
- CC([Se-])CN (stereo unspecified) — higher, 10.8
- CC(=O)/C(CN1CCOCC1)=N\O — lower, 6.1
- CO[C@H]1C=CC2=CCN3CC[C@H](CO)/C(=C\CO)[C@]23C1 — lower, 7.79
- Cc1[nH]c2ccc(N)cc2[nH+]1 — lower, 3.12
- CSc1ncnc2[nH]ncc12 — lower, 1
- COCC/N=C(\c1ccccc1)C(C)(C)O — lower, 5.75
- CCCC1CCCN1C (stereo unspecified) — higher, 9.78
- O=C([O-])c1c2cccc1COCCOCc1ncc([nH]1)COCCOC2 — lower, 7.05
- NC(=O)c1cccnc1 — lower, 3.32
- C#CC(C)(C)NC(C)(C)C=C — within 0.2 log units, 8.2
- CN(c1ccccc1)C1CCCC1 — lower, 6.71
- COc1ccc(OC)c2c1nc(C)n2C — lower, 6.12
- C1CCC(C2CCCN2)CC1 (stereo unspecified) — higher, 10.8
- CCCNC(C)C(=O)Nc1ccccc1C (stereo unspecified) — lower, 7.32
- [O-]c1nc(C(F)(F)F)nc2nc[nH]c12 — lower, 5.1
- Cc1ccccc1/C(=N\CCCN(C)C)c1ccccc1-c1ccccc1 — higher, 9.25
- CNc1cccnc1 — lower, 6.41
- FC(F)(F)c1cc(-c2ccccc2)nnc1NCC[NH+]1CCOCC1 — lower, 1.44
- C1CCC2CNCCC2C1 (stereo unspecified) — higher, 10.9
- COc1ccc([N+](=O)[O-])cc1C(=O)N[C@@H]1C[C@H]2CC[C@@H](C1)N2Cc1ccccc1 — higher, 8.7
- N/C(=N\O)C(N)c1ccccc1 (stereo unspecified) — lower, 7.15
- CN(C)CCC[NH+](C)C — lower, 7.73
- CCCCCCCNCc1ccc(C)cc1 — higher, 10
- CCOC(=O)CC(c1ccccc1)N(C)C (stereo unspecified) — lower, 7.66
- c1cnc2c(c1)ccc1cccnc12 — lower, 4.96
